The subject of one assay is diabetic (ob/ob) mice. In words: blood glucose lowering activity in diabetic (ob/ob) mice. The assay is classed as in vivo, mouse (ob/ob, C57 B1/6J). The settings on record: positive control, 100 mg/kg/day. The source says: The procedures used and results obtained are briefly described below.
The no -insulin dependent diabetic (NIDDM) syndrome can be typically characterizes by obesity, hyperglycemia, abnormal insulin secretion, hyperinsulinemia and insulin resistance.
In each test procedure, mice [Male or female ob/ob (C57 B1/6J) and their lean litermates (ob/+ or +/+, Jackson Laboratories) ages 2 to 5 months (10 to 65 g)] of a similar age were randomized according to body weight into 4 groups of 10 mice. The mice were housed 5 per cage and are maintained on normal rodent chow with water ad libitum. Mice received test compound daily by gavage (suspended in 0.5 ml of 0.5% methyl cellulose); dissolved in the drinking water; or admixed in the diet. The dose of compounds given ranges from 2.5 to 200 mg/kg body weight/day. The dose is calculated based on the fed weekly body weight and is expressed as active moiety. […] Control mice received vehicle only.
On the morning of Day 4, 7 or 14 two drops of blood (approximetly 50 ul) were collected into sodium fluoride containing tubes either from the tail vein or after decapitation. […] The plasma was isolated by centrifugation and the concentration of glucose is measured enzymatically on an Abbott V.P. Analyzer.
For each mouse, the percentage change in plasma glucose on Day 4, 7 or 14 is calculated relative to the mean plasma glucose of the vehicle treated mice. […]

Another assay concerns the target T1, hPTP1B (Homo sapiens, UniProt P18031).
T1 construct: made in house
T1 sequence (P18031 1-435): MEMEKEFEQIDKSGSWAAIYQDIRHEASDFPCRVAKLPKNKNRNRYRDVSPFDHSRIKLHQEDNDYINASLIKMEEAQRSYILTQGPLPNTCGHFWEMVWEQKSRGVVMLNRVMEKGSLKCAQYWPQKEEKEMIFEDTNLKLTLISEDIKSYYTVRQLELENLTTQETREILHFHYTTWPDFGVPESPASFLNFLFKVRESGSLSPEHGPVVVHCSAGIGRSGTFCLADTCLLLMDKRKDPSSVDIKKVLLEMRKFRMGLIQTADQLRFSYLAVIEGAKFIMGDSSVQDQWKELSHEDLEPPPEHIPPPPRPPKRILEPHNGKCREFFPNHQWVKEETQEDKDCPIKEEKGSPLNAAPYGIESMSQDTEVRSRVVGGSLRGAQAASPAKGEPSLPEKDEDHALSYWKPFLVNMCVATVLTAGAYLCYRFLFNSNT
In words: Inhibition of Tri-Phosphorylated Insulin Receptor Dodecaphosphopeptide Dephosphorylation by hPTP1B. The assay is classed as biochemical.

Here are results for two molecules from patent US6310081A, “Biphenyl sulfonyl aryl carboxylic acids useful in the treatment of insulin resistance and hyperglycemia” (American Home Products Corporation, priority 2001, dated 2001).

Turning to `CC1(COc2ccc(CC3SC(=O)NC3=O)cc2)CCCCC1` (centres unmarked) [Ciglitazone, 5-(4-(1-methylcyclohexylmethoxy)benzyl)-2,4-dione], the “plasma glucose lowering (in words)” value in the assay with diabetic (ob/ob) mice was “significant lowering in plasma glucose”.

A word on the IC50: it is the concentration that gives 50% inhibition. At hPTP1B, `Cc1oc(-c2ccc(C(F)(F)F)cc2)nc1-c1ccc(-c2ccc(OS(=O)(=O)c3ccc(C(=O)O)c(O)c3)cc2)cc1` [Example 14] yielded an IC50 of 193 nM.
